From US20190290671A1, “HYPOLIPIDEMIC EFFECTS OF COMPOSITIONS COMPRISING BETA-GLUCOGALLIN” (priority 2018, published 2019)

Experiment: body weight of high fat diet fed rats
Assay type: in vivo, Albino Rat (Wistar)
Conditions: HFD + 3 mg/kgbw
Description: Performance of the Test • Feed: The animals were fed with Normal diet (9 kcal/day) and High fat diet (50 kcal/day) throughout the acclimatization and experimental period. The normal diet and High Fat diet were prepared as follows.
Body weight of the animals was recorded in 0th, 15th, 25th, 40th, 60th and 84th day of experimental period. At 0th day, 1 ml Tail blood was collected from each animal of all the groups and serum was separated. At the end of the experimental period (84th day), the animals were sacrificed by cervical dislocation. Blood was collected and serum was separated by centrifugation and used for the analysis of biochemical parameters.
The test item was administered through oral route by gavage.
Experimental Methods • Measurement of Body weight • Estimation of Cholesterol (CHOD/POD Method) • Estimation of Triglycerides (GPO/POD Method) • Estimation of HDL Cholesterol (HDL Cholesterol Direct Reagent Kit, Beacon) • Determination of LDL Cholesterol (LDL Cholesterol Direct Reagent Kit, Beacon)

For CC(C)c1c(C(=O)Nc2ccccc2)c(-c2ccccc2)c(-c2ccc(F)cc2)n1CC[C@@H](O)C[C@@H](O)CC(=O)O [STATIN, Atrovastin], the “Mean Body Weight” value (0th Day) was 108.33 ± 6.83 g, the “Mean Body Weight” value (15th Day) was 127.50 ± 6.90 g and the “Mean Body Weight” value (25th Day) was 139.16 ± 5.84 g. The “Mean Body Weight” value (40th Day) was 155.83 ± 7.35 g, the “Mean Body Weight” value (60th Day) was 165.83 ± 9.70 g and the “Mean Body Weight” value (84th Day) was 172.50 ± 9.35 g.
